The values that follow come from patent US20200216493A1, “ANTIMICROBIAL PEPTIDES” (FERRING B.V., priority 2016, published 2020).

In brackets after ≈: the same amount, converted by molar mass. Where only a bound is given, the exact number is not on record here.

Series [1] concerns S.aureus. The format is cell-based, Staphylococcus aureus. In outline:
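Broth microdilution in Mueller-Hinton broth, ~5×10^5 cfu/mL inoculum, twofold compound dilutions in duplicate, 16–20 h at 37 °C with shaking. MIC (μg/mL) is the lowest concentration giving OD600 <0.08.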

Series [2] has as its system E. faecalis (5 isolates). The format is cell-based, Enterococcus faecalis. The settings on record: 20 h. As for the experimental part:
(§1) The broth microdilution susceptibility assay followed the procedure described by the Clinical and Laboratory Standards Institute (CLSI) in CLSI document M7-A10.
(§2) The following bacteria isolates were tested:
(§3) S.aureus, S.epidermidis, E.faecalis, and E.faecium colonies were grown on TSA (Tryptone Soya Agar; cat.N. P05012A -OXOID) S.pneumoniae and S.pyogenes colonies were grown on TSASB ((TSA) Agar +5% Sheep Blood; cat.N. PB5012A -OXOID). An inoculum was prepared by making a direct saline suspension of isolated colonies selected from an 18 to 24 hours agar plate incubated at 35±2 ° C. in ambient air. The suspension was adjusted to achieve a turbidity equivalent to a 0.5 McFarland turbidity standard (1 to 2 ×10^8 Colony Forming Units (CFU)) and diluted 200 fold within 15 minutes in broth. (S.aureus, S.epidermidis, E.faecalis, and E.faecium were diluted in CAMHB: Mueller Hinton Broth 2, Cation-Adjusted (cat. N. 90922 Fluka); S.pneumoniae and S.pyogenes were diluted in CAMHB +2.5% lysed horse blood. All broth contained 0.002% polysorbate 80.
(§4) 96-well plates were prepared containing 1 μL of the test compound (at 100× desired test concentration in 100% DMSO); compounds were tested at 8 final concentrations, i.e. 16 μg/mL, 8 μg/mL, 4 μg/mL, 2 μg/mL, 1 μg/mL, 0.5 μg/mL, 0.25 μg/mL, and 0.125 μg/mL. 100 μL of the broth dilution was dispensed in each well plate to have a final bacterial concentration in plate of ˜5×10^5 CFU/mL. The plates were incubated at 35±2° C. in ambient air for 20 hours.

The subject of series [3] is S. aureus (14 isolates). The format is cell-based, Staphylococcus aureus. The settings on record: 20 h. As to the method: as §1, §2, §3, §4
Series [4] relates to E.coli. The format is cell-based, Escherichia coli.
Series [5] deals with C. difficile.
For series [6], the system named is S. pyogenes (2 isolates). The format is cell-based, Streptococcus pyogenes. The following applies: 20 h. As to the method: as §1, §2, §3, §4
Series [7] has as its system B. fragilis.
For series [8], the system named is E. faecium (3 isolates). The format is cell-based, Enterococcus faecium. The settings on record: 20 h. As for the experimental part: as §1, §2, §3, §4
The test system of series [9] is S. epidermidis (5 isolates). The format is cell-based, Staphylococcus epidermidis. The following applies: 20 h. As to the method:
as §1, §2, §3, §4

The nature of series [10]: in vitro. The format is cell-based. The following applies: human, HepG2 cells. As to the method: Compounds were tested for cytotoxicity to a mammalian cell line HepG2 (Human hepatocyte carcinoma from ECACC (85011430)). Hep G2 cells were seeded into 96-well plates, 7500 cells/well in 100 μl medium (Minimum Essential Medium (Gibco 21090) supplemented with 2 mM L-Glutamine, 1% non-essential amino acids and 10% fetal bovine serum) and incubated for 20 hours at 37° C., 5% CO2. 100 μL of fresh medium containing a test compound or DMSO (for control) at 2× final concentration were added and incubated for 48 hours at 37° C., 5% CO2. The final concentration of DMSO in plate was 1%. At the end of this incubation, 20 μl MTT (Thiazolyl Blue Tetrazolium Bromide) solution 5 mg/ml in H2O (0.5 mg/ml final in well) was added to all wells. Cells were incubated with MTT for 4 hours at 37° C., 5% CO2. After incubation, medium containing MTT was removed; 200 μl of DMSO was added in each well and plates were put on a shaker for 5 minutes. Absorbance was read on a SpectraMax plate reader at 570 nm. Specific absorbance (Specific A570) was calculated by subtracting the mean absorbance values of the blank wells (no HepG2 cells) from each well. Control values were determined from wells containing cells and treated with medium+1% DMSO only (no test compound). % viability was calculated as:
(Specific A570test compound/Specific A570control)×100.

Series [11] concerns S. pneumoniae (8 isolates). The format is cell-based, Streptococcus pneumonia. The following applies: 20 h. As to the method: as §1, §2, §3, §4

With `CC[C@H](C)[C@H](NC(=O)[C@@H](Cc1ccc2ccccc2c1)NC)C(=O)N[C@@H](CO)C(=O)N[C@H](CCC(N)=O)C(=O)N[C@@H](C(=O)N[C@H](C(=O)N[C@@H](CO)C(=O)N[C@H]1C(=O)N[C@@H](C)C(=O)N[C@@H](CCCCNC(=N)N)C(=O)N[C@@H]([C@@H](C)CC)C(=O)O[C@H]1C)[C@@H](C)CC)[C@@H](C)CC` [Compound 75, H-D-Me2Nal-Ile-Ser-D-Gln-D-aIle-Ile-Ser-c(D-Thr-Ala-Har-Ile)], the “MIC S. aureus” value in series [1] was 0.06 µg/mL (≈ 0.0459 µM). Moreover, in [2], the “E. faecalis (5) MIC90” value was at most 0.12 µg/mL. For the same molecule, the “S. Aureus (14) MIC90” value in series [3] was at most 0.12 µg/mL. Further, the “MIC E. coli” value in series [4] was above 16 µg/mL. The “MIC ratio Coli/Staph” value in [4] (ratio of E. coli MIC to S. aureus MIC) is above 530. Moreover, in series [5], the “MIC C. difficile” value lay in the range of 0.015 to 0.03 µg/mL. In addition, the “S. pyogenes (2) MIC90” value in series [6] is at most 0.12 µg/mL. The “MIC B. fragilis” value in [7] is above 32 µg/mL. Besides, the “E. faecium (3) MIC90” value in series [8] is at most 0.12 µg/mL. Also, the “S. epidermidis (MIC90) (5)” value in series [9] is at most 0.12 µg/mL. Also, in series [10], the viability (in general, a read-out of living cells in per cent, often relative to untreated cells) at 48 h, 100 µM came out at 119%. In addition, the “S. pneumoniae (8) MIC90” value in series [11] is at most 0.12 µg/mL.
